Reference: patent publication US7351731B2, “Azole derivatives and methods for making the same” (Board of Governors for Higher Education, State of Rhode …, priority 2005, dated 2008)
Values after ≈ are worked out from the molar mass of the structure shown.

Experiments:
[1] = test system: C. albicans ATCC 14053; assay: MIC microdilution susceptibility testing, C. albicans in SDB; format: cell-based, Candida albicans; settings: 24-48 h, average of three experiments; for MIC: Candida albicans
Description: (§1) Microorganisnis. […] Stock cultures were kept on Sabouraud dextrose agar (SDA; Becton-Dickinson and Co., Sparks, Md.). Subcultures were prepared on SDA at 35-37° C. Suspension cultures were prepared by inoculation of single colonies in 7 ml of normal saline solution.
(§2) Test compounds were dissolved in DMSO (0.56 mg/ml) and stored at 0° C. Working dilutions were made in RPMI or SDB medium. […] The final maximum concentration of DMSO in the assays was 5% (v/v).
(§3) Microdilutions for control experiments with C. albicans, A. niger, and C. neoformans were the modified method of National Committee for Clinical Laboratory Standards (NCCLS) method as described by Galgiani and by the more recent NCCLS M27-A microdilution methods as described previously. Galgiani, J. N. Antimicrob. Agents Chemother. […] Reference method for broth dilution antifungal susceptibility testing for yeasts. Approval standard. […] 9; C. arballeira, N. M., et al. Arch. Pharm.-Pharm. […] Dilutions were prepared in 0.1 ml of RPMI or SDB; the inocula were either 10^4 C. albicans or C. neoformans cells or A. niger spores. The tubes were incubated for 24-48 h at 36±1° C., and turbidity was read visually.

[2] = test system: A. niger ATCC 16404; assay: MIC microdilution susceptibility testing, A. niger in SDB; format: cell-based, Aspergillus niger; settings: SDB medium, 35-37° C., 24-48 h, average of three experiments; for MIC: Aspergillus niger, ATCC16404
Description: as §1, §2, §3

[3] = test system: C. albicans ATCC 14053; assay: MIC microdilution susceptibility testing, C. albicans in RPMI; format: cell-based, Candida albicans; settings: for MIC: Candida albicans
Description: as §1, §2, §3

[4] = test system: C. neoformans ATCC 66031; assay: MIC microdilution susceptibility testing, C. neoformans in SDB; format: cell-based, Cryptococcus neoformans; settings: SDB medium, 35-37° C., 24-48 h, average of three experiments; for MIC: Cryptococcus neoformans, ATCC66031
Description: as §1, §2, §3

[5] = ATCC14053, pH 5.6, SDB medium pH 5.6, 35-37° C.
[6] = ATCC14053, RPMI medium pH 6.9, 35-37° C., 24-48 h, average of three experiments, read-out: MIC C. albicans ATCC 14053, RPMI
[7] = ATCC14053, SDB medium pH 5.6, 35-37° C.
[8] = ATCC14053, pH 6.9, read-out: MIC C. albicans ATCC 14053, RPMI
[9] = RPMI medium pH 6.9, 35-37° C., 24-48 h, average of three experiments

SMILES | MIC [1, 5] | MIC [2] | MIC [3, 6] | MIC [4] | MIC [1, 7] | MIC [3, 8] | MIC C. albicans ATCC 14053, SDB ([1]; SDB medium pH 5.6, 35-37° C.) | MIC A. niger ATCC 16404, SDB [2] | MIC C. albicans ATCC 14053, RPMI [3, 9] | MIC C. neoformans ATCC 66031, SDB [4]
CCCC(Br)C(=O)O (stereo not shown) [2-Bromovaleric acid, reference compound] | 578 µg/mL (≈ 3190 µM) | ≥ 578 µg/mL | ≥ 578 µg/mL | 290 µg/mL (≈ 1600 µM) |  |  |  |  |  | 
CCCCC(Br)C(=O)O (stereo not shown) [2-Bromohexanoic acid, reference compound] |  | 710 µg/mL (≈ 3640 µM) |  | 355 µg/mL (≈ 1820 µM) | 710 µg/mL (≈ 3640 µM) | ≥ 710 µg/mL |  |  |  | 
O=C(OCCCl)OC(Cn1cncn1)(Cn1cncn1)c1ccc(F)cc1F [Compound 1k, O-2-Chloroethyloxycarbonylfluconazole] |  |  |  |  |  |  | >977 µg/mL | >977 µg/mL | 977 µg/mL (≈ 2370 µM) | >977 µg/mL
CC(=O)N[C@H]1[C@H](OP(=O)(OCCC#N)OC(Cn2cncn2)(Cn2cncn2)c2ccc(F)cc2F)O[C@H](COC(C)=O)[C@@H](OC(C)=O)[C@@H]1OC(C)=O (stereo partly drawn) [Compound 4b, 2-Cyanoethyl-[1-(2-acetamido-2-deoxy-3,4,6-tri-O-acetyl-β-D-glucopyranosidyl)]fluconazole phosphate] |  |  |  |  |  |  | >3,399 μg/mL | 1,699 μg/mL |  | 306 µg/mL
CCCCCCCCCCCCC(Br)C(=O)OC(Cn1cncn1)(Cn1cncn1)c1ccc(F)cc1F (stereo not shown) [Compound 1i, O-2-Bromomyristoylfluconazole] |  |  |  |  |  |  | 731 µg/mL (≈ 1230 µM) | >731 µg/mL | 731 µg/mL (≈ 1230 µM) | 731 µg/mL (≈ 1230 µM)
CCC(Br)C(=O)O (stereo not shown) [2-Bromobutyric acid, reference compound] |  |  |  | > 513 µg/mL | > 513 µg/mL | 513 µg/mL (≈ 3070 µM) |  |  |  | 
CC(=O)OC(Cn1cncn1)(Cn1cncn1)c1ccc(F)cc1F [Compound 1a, O-Acetylfluconazole] |  |  |  |  |  |  | 1,420 μg/mL | ≧1,420 μg/mL | >1,420 μg/mL | >1,420 μg/mL
CC(=O)O [Acetic acid, reference compound] | ≥ 220 µg/mL | ≥ 220 µg/mL | ≥ 220 µg/mL | ≥ 220 µg/mL |  |  |  |  |  | 
CCCCCCCCCCCCCC(=O)OC(Cn1cncn1)(Cn1cncn1)c1ccc(F)cc1F [Compound 1b, O-Tetradecanoylfluconazole] |  |  |  |  |  |  | 718 µg/mL (≈ 1390 µM) | ≧718 μg/mL | 718 µg/mL (≈ 1390 µM) | 718 µg/mL (≈ 1390 µM)
CCCCCCCCCCC(Br)C(=O)O (stereo not shown) [2-Bromolauric acid, reference compound] | 155 µg/mL (≈ 555 µM) | 78 µg/mL (≈ 279 µM) | 155 µg/mL (≈ 555 µM) | 19 µg/mL (≈ 68 µM) |  |  |  |  |  | 
CC(Br)C(=O)OC(Cn1cncn1)(Cn1cncn1)c1ccc(F)cc1F (stereo not shown) [Compound 1c, O-2-Bromopropionylfluconazole] |  |  |  |  |  |  | 656 µg/mL (≈ 1490 µM) | >656 µg/mL | 656 µg/mL (≈ 1490 µM) | 656 µg/mL (≈ 1490 µM)
CC(=O)OC[C@H]1O[C@@H](OP(=O)(OCCC#N)OC(Cn2cncn2)(Cn2cncn2)c2ccc(F)cc2F)[C@H](OC(C)=O)[C@@H](OC(C)=O)[C@@H]1OC(C)=O (stereo partly drawn) [Compound 4a, 2-Cyanoethyl-[1-(β-D-2,3,4,6-glucosyltetraacetate)]fluconazole phosphate] |  |  |  |  |  |  | 1,999 μg/mL | 1,999 μg/mL |  | 551 µg/mL
CCC(Br)C(=O)OC(Cn1cncn1)(Cn1cncn1)c1ccc(F)cc1F (stereo not shown) [Compound 1d, O-2-Bromobutyrylfluconazole] |  |  |  |  |  |  | 636 µg/mL (≈ 1400 µM) | ≧1,276 μg/mL | 319 µg/mL (≈ 701 µM) | >1,276 μg/mL
CCCCCCCCCCCCC(Br)C(=O)O (stereo not shown) [2-Bromomyristic acid, reference compound] | > 540 µg/mL | 68 µg/mL (≈ 221 µM) | 12 µg/mL (≈ 39.1 µM) | 15 µg/mL (≈ 48.8 µM) |  |  |  |  |  | 
CC(Br)C(=O)Cl (stereo not shown) [2-Bromopropionyl chloride, reference compound] | 468 µg/mL | 468 µg/mL | 468 µg/mL | 117 µg/mL |  |  |  |  |  | 
CCCC(Br)C(=O)OC(Cn1cncn1)(Cn1cncn1)c1ccc(F)cc1F (stereo not shown) [Compound 1e, O-2-Bromovaleroylfluconazole] |  |  |  |  |  |  | 552 µg/mL (≈ 1180 µM) | ≧1,100 μg/mL | 275 µg/mL (≈ 586 µM) | 1,100 μg/mL
CCCCC(Br)C(=O)OC(Cn1cncn1)(Cn1cncn1)c1ccc(F)cc1F (stereo not shown) [Compound 1f, O-2-Bromohexanoylfluconazole] |  |  |  |  |  |  | 492 µg/mL (≈ 1020 µM) | ≧979 μg/mL | 61 µg/mL (≈ 126 µM) | 492 µg/mL (≈ 1020 µM)
C[C@@H]1[C@H](O)[C@@H](C)/C=C/C=C/C=C/C=C/C=C/C=C/C=C/[C@H](O[C@@H]2O[C@H](C)[C@@H](O)[C@H](N)[C@@H]2O)C[C@@H]2O[C@](O)(C[C@@H](O)C[C@@H](O)[C@H](O)CC[C@@H](O)C[C@@H](O)CC(=O)O[C@H]1C)C[C@H](O)[C@H]2C(=O)O [AMB, amphotericin B, reference compound] |  |  |  |  |  |  | 1.5 µg/mL (≈ 1.62 µM) | 0.4 µg/mL (≈ 0.433 µM) | 0.7 µg/mL (≈ 0.758 µM) | 
CCCCCCCCCCC(Br)C(=O)OC(Cn1cncn1)(Cn1cncn1)c1ccc(F)cc1F (stereo not shown) [Compound 1h, O-2-Bromolauroylfluconazole] |  |  |  |  |  |  | 1,466 μg/mL | ≧1,466 μg/mL | 1,466 μg/mL | 1,466 μg/mL
OCCCCCCCCCCCBr [11-Bromoundecanol, reference compound] | 95 µg/mL (≈ 378 µM) | 24 µg/mL (≈ 95.5 µM) |  | 12 µg/mL (≈ 47.8 µM) |  |  |  |  |  | 
O=C(OC(Cn1cncn1)(Cn1cncn1)c1ccc(F)cc1F)c1ccccc1O [Compound 1l, O-Salicylfluconazole] |  |  |  |  |  |  | >1,212 μg/mL | >1,212 μg/mL | ≧1,212 μg/mL | >1,212 μg/mL
C=CCCCCCCCCCO [ω-Undecylenyl alcohol, reference compound] |  |  |  |  |  |  | 110 µg/mL (≈ 646 µM) | 27 µg/mL (≈ 159 µM) |  | 14 µg/mL (≈ 82.2 µM)

Now from value to compound, other results behind:

MIC [1, 5] | MIC [2] | MIC [3, 6] | MIC [4] | SMILES | MIC [1, 7] | MIC [3, 8] | MIC C. albicans ATCC 14053, SDB ([1]; SDB medium pH 5.6, 35-37° C.) | MIC A. niger ATCC 16404, SDB [2] | MIC C. albicans ATCC 14053, RPMI [3, 9] | MIC C. neoformans ATCC 66031, SDB [4]
87 µg/mL (≈ 505 µM) | 87 µg/mL (≈ 505 µM) |  | 28 µg/mL (≈ 162 µM) | CCCCCCCCCCCO [Compound 1-Undecanol, 1-Undecanol, reference compound] |  |  |  |  |  | 
> 731 µg/mL | > 731 µg/mL | 365 µg/mL (≈ 821 µM) | 46 µg/mL (≈ 103 µM) | Cc1ccc(S(=O)(=O)C(Cn2cncn2)(Cn2cncn2)c2ccc(F)cc2F)cc1 [Tosyl] |  |  |  |  |  | 
1290 µg/mL (≈ 3500 µM) | 1290 µg/mL (≈ 3500 µM) | 645 µg/mL (≈ 1750 µM) | 40 µg/mL (≈ 109 µM) | CS(=O)(=O)C(Cn1cncn1)(Cn1cncn1)c1ccc(F)cc1F [Mesyl] |  |  |  |  |  | 
≥ 4440 µg/mL | > 580 µg/mL | 2.3 µg/mL (≈ 7.51 µM) | 2.4 µg/mL (≈ 7.84 µM) | OC(Cn1cncn1)(Cn1cncn1)c1ccc(F)cc1F [FLC, 1,3-bis(1H-1,2,4-triazol-1-yl)-2-(2,4-difluorophenyl)-propan-2-ol, reference compound] |  |  |  |  |  | 
> 701 µg/mL | 701 µg/mL (≈ 1900 µM) | 701 µg/mL (≈ 1900 µM) | 22 µg/mL (≈ 59.6 µM) | Fc1ccc(C(Br)(Cn2cncn2)Cn2cncn2)c(F)c1 [Br] |  |  |  |  |  | 
> 610 µg/mL | 610 µg/mL (≈ 1840 µM) | > 610 µg/mL | 19 µg/mL (≈ 57.4 µM) | [N-]=[N+]=NC(Cn1cncn1)(Cn1cncn1)c1ccc(F)cc1F [Compound N3] |  |  |  |  |  | 
1750 µg/mL (≈ 7660 µM) | > 529 µg/mL | > 876 µg/mL | > 529 µg/mL | CCCCCCCCCCCCCC(=O)O [Tetradecanoic acid, reference compound] |  |  |  |  |  | >529 µg/mL
99 µg/mL (≈ 575 µM) | < 12 µg/mL | 791 µg/mL (≈ 4590 µM) |  | CCCCCCCCCC(=O)O [Decanoic acid, reference compound] |  |  |  |  |  | 
> 883 µg/mL | 883 µg/mL (≈ 2720 µM) | 1140 µg/mL (≈ 3500 µM) | 28 µg/mL (≈ 86.2 µM) | Fc1ccc(C(Cl)(Cn2cncn2)Cn2cncn2)c(F)c1 [Cl] |  |  |  |  |  | 
1720 µg/mL (≈ 8020 µM) | 27 µg/mL (≈ 126 µM) |  | 14 µg/mL (≈ 65.3 µM) | CCCCCCCCCCCCCCO [Tetradecanol, reference compound] |  |  |  |  |  | 
> 749 µg/mL | 749 µg/mL (≈ 1800 µM) | 749 µg/mL (≈ 1800 µM) | 47 µg/mL (≈ 113 µM) | Fc1ccc(C(I)(Cn2cncn2)Cn2cncn2)c(F)c1 [I] |  |  |  |  |  | 
1860 µg/mL (≈ 5780 µM) | > 3730 µg/mL |  | 339 µg/mL (≈ 1050 µM) | Fc1ccc(C(S)(Cn2cncn2)Cn2cncn2)c(F)c1 [SH] |  |  |  |  |  | 
